# System: Escherichia coli
# Experiment: Antimicrobial activity against Escherichia coli MTCC 724 at 100 ug/ml after 24 hrs by agar disc diffusion method
# Type: functional
# Conditions: MTCC 724, 24 h, read-out: DIZ
row,Compound,zone of inhibition at 100 µg/mL [mm]
1,COc1ccc(C2=NN(c3ccccc3)C(c3noc(-c4ccc(Cl)cc4)n3)C2)cc1 (stereo unspecified),10

# System: Aspergillus niger
# Experiment: Antimicrobial activity against Aspergillus niger MTCC 281
# Type: functional
# Conditions: not given
row,Compound,MIC [µg/mL]
1,COc1ccc(C2=NN(c3ccccc3)C(c3noc(-c4ccc(Cl)cc4)n3)C2)cc1 (stereo unspecified),10

# System: Escherichia coli
# Experiment: Antimicrobial activity against Escherichia coli MTCC 724 at 50 ug/ml after 24 hrs by agar disc diffusion method
# Type: functional
# Conditions: MTCC 724, 24 h, read-out: DIZ
row,Compound,zone of inhibition at 50 µg/mL [mm]
1,COc1ccc(C2=NN(c3ccccc3)C(c3noc(-c4ccc(Cl)cc4)n3)C2)cc1 (stereo unspecified),8

# System: Bacillus cereus
# Experiment: Antimicrobial activity against Bacillus cereus MTCC 8372
# Type: functional
# Conditions: not given
row,Compound,MIC [µg/mL]
1,COc1ccc(C2=NN(c3ccccc3)C(c3noc(-c4ccc(Cl)cc4)n3)C2)cc1 (stereo unspecified),40

# System: Aspergillus niger
# Experiment: Antimicrobial activity against Aspergillus niger MTCC 281 at 50 ug/ml after 24 hrs by agar disc diffusion method
# Type: functional
# Conditions: MTCC 281, 24 h, read-out: DIZ
row,Compound,zone of inhibition at 50 µg/mL [mm]
1,COc1ccc(C2=NN(c3ccccc3)C(c3noc(-c4ccc(Cl)cc4)n3)C2)cc1 (stereo unspecified),12

# System: Shigella flexneri
# Experiment: Antimicrobial activity against Shigella flexneri MTCC 1457 at 100 ug/ml after 24 hrs by agar disc diffusion method
# Type: functional
# Conditions: MTCC 1457, 24 h, read-out: DIZ
row,Compound,zone of inhibition at 100 µg/mL [mm]
1,COc1ccc(C2=NN(c3ccccc3)C(c3noc(-c4ccc(Cl)cc4)n3)C2)cc1 (stereo unspecified),8

# System: Aspergillus niger
# Experiment: Antimicrobial activity against Aspergillus niger MTCC 281 at 100 ug/ml after 24 hrs by agar disc diffusion method
# Type: functional
# Conditions: MTCC 281, 24 h, read-out: DIZ
row,Compound,zone of inhibition at 100 µg/mL [mm]
1,COc1ccc(C2=NN(c3ccccc3)C(c3noc(-c4ccc(Cl)cc4)n3)C2)cc1 (stereo unspecified),20

# System: Radical scavenging activity
# Experiment: Antioxidant activity assessed as DPPH free radical scavenging activity at 100 ug/ml after 20 mins
# Type: functional
# Conditions: not given
row,Compound,Activity [%]
1,COc1ccc(C2=NN(c3ccccc3)C(c3noc(-c4ccc(Cl)cc4)n3)C2)cc1 (stereo unspecified),72

# System: not listed separately
# Experiment: Antioxidant activity assessed as reducing power of ferric ion at 100 ug/ml after 20 mins
# Type: functional
# Set-up: scale not given: the % may be the effect or the level left
# Conditions: not given
row,Compound,Activity [%]
1,COc1ccc(C2=NN(c3ccccc3)C(c3noc(-c4ccc(Cl)cc4)n3)C2)cc1 (stereo unspecified),58

# System: Staphylococcus aureus
# Experiment: Antimicrobial activity against Staphylococcus aureus MTCC 96 at 50 ug/ml after 24 hrs by agar disc diffusion method
# Type: functional
# Conditions: MTCC 96, 24 h, read-out: DIZ
row,Compound,zone of inhibition at 50 µg/mL [mm]
1,COc1ccc(C2=NN(c3ccccc3)C(c3noc(-c4ccc(Cl)cc4)n3)C2)cc1 (stereo unspecified),5

# System: not listed separately
# Experiment: Antioxidant activity assessed as reducing power of ferric ion at 50 ug/ml after 20 mins
# Type: functional
# Set-up: scale not given: the % may be the effect or the level left
# Conditions: not given
row,Compound,Activity [%]
1,COc1ccc(C2=NN(c3ccccc3)C(c3noc(-c4ccc(Cl)cc4)n3)C2)cc1 (stereo unspecified),23

# System: Escherichia coli
# Experiment: Antimicrobial activity against Escherichia coli MTCC 724
# Type: functional
# Conditions: not given
row,Compound,MIC [µg/mL]
1,COc1ccc(C2=NN(c3ccccc3)C(c3noc(-c4ccc(Cl)cc4)n3)C2)cc1 (stereo unspecified),25

# System: Radical scavenging activity
# Experiment: Antioxidant activity assessed as DPPH free radical scavenging activity at 50 ug/ml after 20 mins
# Type: functional
# Conditions: not given
row,Compound,Activity [%]
1,COc1ccc(C2=NN(c3ccccc3)C(c3noc(-c4ccc(Cl)cc4)n3)C2)cc1 (stereo unspecified),52

# System: not listed separately
# Experiment: Antiinflammatory activity against heat-induced albumin denaturation at […] preincubated for 15 mins before heat induction by UV-vis spectrophotometer analysis
# Type: functional
# Conditions: not given
row,Compound,inhibition [%]
1,COc1ccc(C2=NN(c3ccccc3)C(c3noc(-c4ccc(Cl)cc4)n3)C2)cc1 (stereo unspecified),57.5

# System: Aspergillus flavus
# Experiment: Antimicrobial activity against Aspergillus flavus MTCC 873 at 50 ug/ml after 24 hrs by agar disc diffusion method
# Type: functional
# Conditions: MTCC 873, 24 h, read-out: DIZ
row,Compound,zone of inhibition at 50 µg/mL [mm]
1,COc1ccc(C2=NN(c3ccccc3)C(c3noc(-c4ccc(Cl)cc4)n3)C2)cc1 (stereo unspecified),12

# System: not listed separately
# Experiment: Antioxidant activity assessed as reducing power of ferric ion at 10 ug/ml after 20 mins
# Type: functional
# Set-up: scale not given: the % may be the effect or the level left
# Conditions: not given
row,Compound,Activity [%]
1,COc1ccc(C2=NN(c3ccccc3)C(c3noc(-c4ccc(Cl)cc4)n3)C2)cc1 (stereo unspecified),12

# System: Bacillus cereus
# Experiment: Antimicrobial activity against Bacillus cereus MTCC 8372 at 50 ug/ml after 24 hrs by agar disc diffusion method
# Type: functional
# Conditions: MTCC 8372, 24 h, read-out: DIZ
row,Compound,zone of inhibition at 50 µg/mL [mm]
1,COc1ccc(C2=NN(c3ccccc3)C(c3noc(-c4ccc(Cl)cc4)n3)C2)cc1 (stereo unspecified),4

# System: not listed separately
# Experiment: Antioxidant activity against ferric chloride-induced lipid peroxidation using egg lecithin at 50 ug/ml after 1 hr
# Type: functional
# Conditions: not given
row,Compound,inhibition [%]
1,COc1ccc(C2=NN(c3ccccc3)C(c3noc(-c4ccc(Cl)cc4)n3)C2)cc1 (stereo unspecified),48

# System: Shigella flexneri
# Experiment: Antimicrobial activity against Shigella flexneri MTCC 1457
# Type: functional
# Conditions: not given
row,Compound,MIC [µg/mL]
1,COc1ccc(C2=NN(c3ccccc3)C(c3noc(-c4ccc(Cl)cc4)n3)C2)cc1 (stereo unspecified),25

# System: Aspergillus flavus
# Experiment: Antimicrobial activity against Aspergillus flavus MTCC 873 at 100 ug/ml after 24 hrs by agar disc diffusion method
# Type: functional
# Conditions: MTCC 873, 24 h, read-out: DIZ
row,Compound,zone of inhibition at 100 µg/mL [mm]
1,COc1ccc(C2=NN(c3ccccc3)C(c3noc(-c4ccc(Cl)cc4)n3)C2)cc1 (stereo unspecified),18

# System: Klebsiella pneumoniae
# Experiment: Antimicrobial activity against Klebsiella pneumoniae MTCC 3384
# Type: functional
# Conditions: not given
row,Compound,MIC [µg/mL]
1,COc1ccc(C2=NN(c3ccccc3)C(c3noc(-c4ccc(Cl)cc4)n3)C2)cc1 (stereo unspecified),25

# System: Radical scavenging activity
# Experiment: Antioxidant activity assessed as DPPH free radical scavenging activity at 10 ug/ml after 20 mins
# Type: functional
# Conditions: not given
row,Compound,Activity [%]
1,COc1ccc(C2=NN(c3ccccc3)C(c3noc(-c4ccc(Cl)cc4)n3)C2)cc1 (stereo unspecified),22

# System: not listed separately
# Experiment: Antioxidant activity against ferric chloride-induced lipid peroxidation using egg lecithin at 10 ug/ml after 1 hr
# Type: functional
# Conditions: not given
row,Compound,inhibition [%]
1,COc1ccc(C2=NN(c3ccccc3)C(c3noc(-c4ccc(Cl)cc4)n3)C2)cc1 (stereo unspecified),34

# System: Staphylococcus aureus
# Experiment: Antimicrobial activity against Staphylococcus aureus MTCC 96
# Type: functional
# Conditions: not given
row,Compound,MIC [µg/mL]
1,COc1ccc(C2=NN(c3ccccc3)C(c3noc(-c4ccc(Cl)cc4)n3)C2)cc1 (stereo unspecified),30

# System: Shigella flexneri
# Experiment: Antimicrobial activity against Shigella flexneri MTCC 1457 at 50 ug/ml after 24 hrs by agar disc diffusion method
# Type: functional
# Conditions: MTCC 1457, 24 h, read-out: DIZ
row,Compound,zone of inhibition at 50 µg/mL [mm]
1,COc1ccc(C2=NN(c3ccccc3)C(c3noc(-c4ccc(Cl)cc4)n3)C2)cc1 (stereo unspecified),8

# System: Aspergillus flavus
# Experiment: Antimicrobial activity against Aspergillus flavus MTCC 873
# Type: functional
# Conditions: not given
row,Compound,MIC [µg/mL]
1,COc1ccc(C2=NN(c3ccccc3)C(c3noc(-c4ccc(Cl)cc4)n3)C2)cc1 (stereo unspecified),10

# System: Klebsiella pneumoniae
# Experiment: Antimicrobial activity against Klebsiella pneumoniae MTCC 3384 at 50 ug/ml after 24 hrs by agar disc diffusion method
# Type: functional
# Conditions: MTCC 3384, 24 h, read-out: DIZ
row,Compound,zone of inhibition at 50 µg/mL [mm]
1,COc1ccc(C2=NN(c3ccccc3)C(c3noc(-c4ccc(Cl)cc4)n3)C2)cc1 (stereo unspecified),7

# System: Staphylococcus aureus
# Experiment: Antimicrobial activity against Staphylococcus aureus MTCC 96 at 100 ug/ml after 24 hrs by agar disc diffusion method
# Type: functional
# Conditions: MTCC 96, 24 h, read-out: DIZ
row,Compound,zone of inhibition at 100 µg/mL [mm]
1,COc1ccc(C2=NN(c3ccccc3)C(c3noc(-c4ccc(Cl)cc4)n3)C2)cc1 (stereo unspecified),12

# System: Bacillus cereus
# Experiment: Antimicrobial activity against Bacillus cereus MTCC 8372 at 100 ug/ml after 24 hrs by agar disc diffusion method
# Type: functional
# Conditions: MTCC 8372, 24 h, read-out: DIZ
row,Compound,zone of inhibition at 100 µg/mL [mm]
1,COc1ccc(C2=NN(c3ccccc3)C(c3noc(-c4ccc(Cl)cc4)n3)C2)cc1 (stereo unspecified),13

# System: not listed separately
# Experiment: Antioxidant activity against ferric chloride-induced lipid peroxidation using egg lecithin at 100 ug/ml after 1 hr
# Type: functional
# Conditions: not given
row,Compound,inhibition [%]
1,COc1ccc(C2=NN(c3ccccc3)C(c3noc(-c4ccc(Cl)cc4)n3)C2)cc1 (stereo unspecified),70

# System: Klebsiella pneumoniae
# Experiment: Antimicrobial activity against Klebsiella pneumoniae MTCC 3384 at 100 ug/ml after 24 hrs by agar disc diffusion method
# Type: functional
# Conditions: MTCC 3384, 24 h, read-out: DIZ
row,Compound,zone of inhibition at 100 µg/mL [mm]
1,COc1ccc(C2=NN(c3ccccc3)C(c3noc(-c4ccc(Cl)cc4)n3)C2)cc1 (stereo unspecified),10
